Data: US9388215B2, “Compositions and methods of using islet neogenesis peptides and analogs thereof” (SHENZHEN HIGHTIDE BIOPHARMACEUTICAL, LTD., priority 2013, dated 2016)
Ends that are not written are not given here.

Key:
pancreatic islets = test: Glucose-stimulated insulin secretion (GSIS) of isolated islets; type: cell-based, rat; conditions: 12.0 mM glucose; 10 μg/mL peptide or 100 nM GLP-1; 60 min; FIG. 8
Description: The pancreases were procured from male adult Sprague-Dawley (SD) rats. After 7 days acclimation, the animals were sacrificed by cervical dislocation and the entire pancreas was removed and digested with collagenase to isolate islets. After digestion, islets were maintained at 37° C. in RPMI 1640 (Carlsbad Calif., USA) pH 7.4, containing 10% (v/v) fetal calf serum, 1% penicillin/streptomycin, and 10 mM glucose in a humid atmosphere (5% CO2/95% O2), without the addition of any compound (control), or with the addition of 100 nM glucagon like peptide-1 (GLP-1); or 10 μg/mL Peptide 1, Peptide 12, or Peptide 16, as summarized in Table 4 below. Cultured islets were rinsed in Krebs-Ringer bicarbonate buffer (KRB), pH 7.4, previously gassed with a mixture of CO2/O2 (5/95%), and pre-incubated in 1.0 ml of KRB containing 0.5% (w/v) BSA and 1.5 mM glucose at 37° C. for 45 min. After this period, groups of 5 islets were incubated in 0.6 ml KRB with the addition of 1.5 or 12.0 mM glucose, with or without the addition of peptides for 60 min. At the end of the incubation period, aliquots of the medium were collected for insulin quantitation.

[1] = Pharmacokinetics in mouse, subcutaneous bolus; type: in vivo; conditions: male, C57BL/6, mouse, in vivo, sc, 25 mg/kg
Description: (§1) After 7 days acclimation, male Sprague-Dawley (SD) rats weighing 210-250 g, or male C57BL/6 mice, weighing 19-24 g, in good health were used in the study. Peptide 1, Peptide 12 and Peptide 16 were dissolved in sterile normal saline and then they were injected via subcutaneous (sc) bolus or intravenous (iv) bolus at the dose level of 25 mg/kg. Three animals in each group were used for blood collection at the time point of 5 min, 15 min, 30 min, 1 h, 2 h, 4 h, 6 h, 8 h and 24 h post-dose. Blood samples (approximately 400 μL) were collected and placed into tubes containing EDTA-K2 and centrifuged at 8000 rpm for 6 minutes at 4° C. to separate plasma from the samples. The resulting plasma was stored frozen at −80° C. until being analyzed. Plasma concentrations of peptides were determined using tandem mass spectrometry (LC-MS/MS) analysis. A non-compartmental module of WinNonlin® Professional 5.2 (Pharsight; St. Louis Mo.), was used to calculate PK parameters. The abbreviation AUC(0-t) represents area under the curve from the time of dosing to the time of the last observation, the AUC(0-∞) represents area under the curve from the time of dosing to infinity, and the Cmax represents maximum concentration detected.

[2] = Pharmacokinetics in rat, subcutaneous bolus (Example VII); type: in vivo; conditions: male, Sprague-Dawley, rat, in vivo, sc, 25 mg/kg
Description: as §1

[3] = Pharmacokinetics in rat, intravenous bolus; type: in vivo; conditions: male, Sprague-Dawley, rat, in vivo, iv, 25 mg/kg
Description: as §1

normal C57BL/6J mice [4] = test: Induction of extra islet insulin positive β cell clusters (EIC) in normal C57BL/6J mice; type: in vivo, mouse; conditions: analog 5 mg/kg vs INGAP-PP 50 mg/kg, 10 days
Description: After a 1-week acclimation, female C57BL/6J mice were randomly divided into 6 groups (n=5 per group). The control group received 10 mL/kg sterile normal saline via subcutaneous injection for 10 consecutive days. The other five groups received INGAP-PP (Peptide 1) or INGAP-PP analogs Peptide 12, Peptide 16, Peptide 29 or Peptide 31 at a dose of 50 mg/kg or 5 mg/kg per day, respectively, for the same period. On day 11, the pancreas was removed from each animal, cleared of fat and lymph nodes, weighed, and fixed in 10% neutral buffered formalin (NBF) for no longer than 24 hours before processing for morphometric analysis.
Immunohistochemistry analysis was used to assess the islet neogenic activities of peptides by measuring the number and area of extra islet insulin positive β cell clusters (EIC) of pancreatic tissues harvested from each individual group post 10 day treatment. EIC is indicative of islet neogenesis, as previously described by Lipsett and Finegood (Diabetes 51:1834-1841 (2002)).

[5] = Pharmacokinetics in SD rats after single subcutaneous dose (Example X); type: in vivo, rat; conditions: male, Sprague-Dawley, rat, in vivo, sc, 25 mg/kg
Description: After 7 days acclimation, a total of 15 male Sprague-Dawley (SD) rats (body weight: 230 to 270 g) in good health from Sino-British SIPPR/BK Lab Animal Ltd, Shanghai, were used in the study. All peptides, Peptide 1, Peptide 12, Peptide 16, Peptide 29 or Peptide 31, were dissolved in sterile normal saline respectively to yield the desired final concentrations and were administered via single subcutaneous (sc) dose.
Three animals in each group were used for blood collection at the time point of 5 min, 15 min, 30 min, 1 h, 2 h, 4 h, 6 h, 8 h and 24 h post-dose. Blood samples (approximately 400 μL) were collected and placed into tubes containing EDTA-K2 (dipotassium ethylene diamine tetraacetic acid) and centrifuged at 8000 rpm for 6 minutes at 4° C. to separate plasma from the samples. The resulting plasma was stored frozen at −80° C. until being analyzed.
Plasma concentrations of peptides were determined using tandem mass spectrometry (LC-MS/MS) analysis. A non-compartmental module of WinNonlin® Professional 5.2 (Pharsight; St. Louis Mo.) was used to calculate PK parameters. AUC(0-t) represents area under the curve from the time of dosing to the time of the last observation, the AUC(0-∞) represents area under the curve from the time of dosing to infinity, and the Cmax represents maximum concentration detected.

[6] = Peptide concentration in plasma and pancreas 30 min post dose; type: in vivo, rat; conditions: male, Sprague-Dawley, rat, in vivo, sc, 25 mg/kg, Peptide concentration
Description: To further characterize the pharmacokinetic (PK) properties of peptides, peptide concentration in pancreas—the target organ, was determined 30 min post dose. Briefly, INGAP-PP (Peptide 1), Peptide 12, or Peptide 31 was dissolved in sterile normal saline and then was administered via subcutaneous (sc) bolus at the dose level of 25 mg/kg to male Sprague-Dawley (SD) rats. Five animals in each group were used for blood and pancreas collection at the time point of 30 min post-dose. Blood samples (approximately 400 μL) were collected and placed into tubes containing EDTA-K2 and centrifuged at 8000 rpm for 6 minutes at 4° C. to separate plasma from the samples. After blood extraction and animal sacrifice, the pancreas was removed immediately from each animal, cleared of fat and lymph nodes, weighed, and placed into 5 fold volume of ice cold sterile normal saline with protease inhibitor cocktail (Merck Millipore, catalogue #539137) to homogenize with a homogenizer.
The peptide concentration of the plasma and pancreatic homogenate was determined immediately using tandem mass spectrometry (LC-MS/MS) analysis and the results are presented in Table 8.

[7] = type: physicochemical; conditions: pH 7.4
Description: Peptide stability in buffers was tested for INGAP-PP and selected analogs. 10 mg/mL of Peptide 1, Peptide 12, Peptide 16, Peptide 29 or Peptide 31 was dissolved in isotonic buffers with pH ranging from 4.0 to 8.0. […] Peptide 12 and Peptide 29 were stable in an isotonic phosphate buffer (pH 7.4) for more than 90 days at 4° C. (there was no sign of degradation at 90 days sample check point), and 60 days at 25° C.

[8] = Peptide stability in rat plasma; type: in vitro ADME; conditions: 100 μg/mL, 37° C.; FIG. 12, 13
Description: (§2) The stability of peptides was also tested in rat, mouse and human plasma. Briefly, a certain amount of peptides and eucatropine powder (positive control) was accurately weighed. Test compounds were dissolved in 50% methanol-water solution and diluted to 20 mg/mL, and eucatropine was dissolved in dimethylsulfoxide (DMSO) and diluted to 10 mM, as a stock solution. Eucatropine stock solution was diluted to 0.2 mM with DMSO as a working solution. A stop reagent was prepared containing 200 ng/mL midazolam and tolbutamide in acetonitrile. A volume of 300 μL of stop solution was added to each well of a 96-well deep-well plate placed on ice beforehand.
(§3) For the stability studies, peptides and eucatropine were spiked into plasma respectively, mixed well, and then 100 μL of each mixture solution was transferred into the pre-cooled stop reagent as 0 time point sample. The remaining mixtures were incubated in a 37° C. water bath with shaking at 100 rpm (n=2). The final incubation concentration was 1 μM for eucatropine and 100 μg/mL for all test compounds.
(§4) At desired time points, 100 μL of incubation mixture was transferred to the stop reagent to precipitate proteins. Samples were vortexed and centrifuged at RCF 5000×g for 10 minutes, and supernatant was transferred to a test plate. The samples were analyzed by LC-MS/MS.
(§5) Slope was calculated by plotting the natural logarithm of the percentage of remaining amount of test compounds and time, and T1/2 was calculated in accordance with the following formula.
For stability in rat plasma, the incubation time was 0, 15, 30, 60 and 120 min for Peptide 1 and eucatropine, and 0, 15, 30, 60, 120, and 240 min for Peptide 12, Peptide 16, Peptide 29 and Peptide 31.
In another stability study in rat plasma, the incubation time was 0, 30, 60 120 and 240 min for Peptide 2, Peptide 52, Peptide 64 and eucatropine.

[9] = Peptide stability in mouse plasma; type: in vitro ADME; conditions: 100 μg/mL, 37° C.; FIG. 3, 5, 14
Description: as §2, with “in” for “in rat,”
as §3, with “[…]” for “1 μM”
as §4, §5
For stability in mouse plasma, the incubation time was 0, 5, 15, 30 and 60 min for Peptide 1 and eucatropine; 0, 15, 30, 60, 120, 240 and 480 min for Peptide 12, Peptide 16 and Peptide 29.
In another stability study in mouse plasma, the incubation time was 0, 30, 60 and 120 min for Peptide 2 and eucatropine; 0, 30, 60, 120, 240 and 960 min for Peptide 52 and Peptide 54.
as §2, §3
For stability in mouse plasma, the incubation time was 0, 15, 30, 60 and 120 min for Peptide 1 and eucatropine; 0, 15, 30, 60, 120, and 240 min for Peptide 31.

normal C57BL/6J mice [10] = test: Induction of small β-cell clusters in normal C57BL/6J mice (islet size distribution); type: in vivo, mouse; conditions: normal mice
Description: After a 1-week acclimation, C57BL/6J female mice were randomly divided into 4 groups. The two control groups received either 10 mL/kg sterile normal saline (n=4) or scrambled peptide (Peptide 3, 25 mg/kg) (n=5) via subcutaneous injection for 10 days. The other two groups received INGAP-PP (Peptide 1) or INGAP-PP analog Peptide 7 at a dose of 25 mg/kg per day respectively (n=7 per group) for the same period. Body weight and 6 hour fasting blood glucose were measured before treatment and after the last dosing of treatment. Plasma and pancreatic insulin were also measured at the end of the study. On day 11, the pancreas was removed from each animal, cleared of fat and lymph nodes, weighed, and fixed in 10% neutral buffered formalin (NBF) for no longer than 24 hours before processing for morphometric analysis.
Immunohistochemistry analysis was used to determine pancreatic islet size distribution.

Ac-IGLHDPSHGTLPAGS-OH [Peptide 12, Ac-IGLHDPSHGTLPAGS-OH]
glucose-stimulated insulin release vs islets without peptide (pancreatic islets): released significantly more insulin than those cultured without the addition of peptides | AUC(0-inf) [1]: 5890 ng·h/mL | AUC(0-t) [1]: 5870 ng·h/mL | Cmax [1]: 11600 ng/mL | AUC(0-inf) [2]: 8480 ng·h/mL | AUC(0-t) [2]: 8420 ng·h/mL | Cmax [2]: 14000 ng/mL | AUC(0-inf) [3]: 12600 ng·h/mL | AUC(0-t) [3]: 12600 ng·h/mL | Cmax [3]: 44300 ng/mL | islet neogenesis efficacy relative to INGAP-PP (normal C57BL/6J mice [4]): comparable or improved efficacy was achieved at a dose one tenth of INGAP-PP | AUC(0-inf) [5]: 11200 ± 1210 ng·h/mL | AUC(0-t) [5]: 11100 ± 1370 ng·h/mL | Cmax [5]: 21400 ± 1350 ng/mL | level at 0.5 h ([6]; Pancreas): 877 ± 261 ng/mL | level at 0.5 h ([6]; Plasma): 5370 ± 981 ng/mL | time stable in isotonic phosphate buffer (pH 7.4) at 4° C. [7]: more than 90 days | time stable in isotonic phosphate buffer (pH 7.4) at 25° C. [7]: 60 days

Ac-IGLHDPTQGTEPAGE-NH2 [Peptide 62, Ac-IGLHDPTQGTEPAGE-NH2]
stability in rat plasma [8]: exhibited good stability in rat plasma and were significantly more stable than HIP

Ac-IGLHDPTQGTEPAGE-OH [Peptide 52, Ac-IGLHDPTQGTEPAGE-OH]
stability in mouse plasma [9]: exhibited good stability in mouse plasma and were significantly more stable than HIP | stability in rat plasma [8]: exhibited good stability in rat plasma and were significantly more stable than HIP

Ac-IGLHDPTQGTEPNGE-OH [Peptide 54, Ac-IGLHDPTQGTEPNGE-OH]
stability in mouse plasma [9]: exhibited good stability in mouse plasma and were significantly more stable than HIP

GLP-1: Glucagon like peptide-1, 100 nM, included as a positive control in GSIS (HAEGTFTSDVSSYLEGQAAKEFIAWLVKGR; ends and bridges not checked; UniProt P01275 98-127, looked up) [reference compound]
glucose-stimulated insulin release vs islets without peptide (pancreatic islets): released significantly more insulin than those cultured without the addition of peptides

H-SHPNGSGTIGLHDPL-OH [Peptide 3, H-SHPNGSGTIGLHDPL-OH]
effect on body weight, blood glucose, plasma insulin, pancreas insulin, pancreas weight (normal C57BL/6J mice [10]; 25 mg/kg per day sc for 10 days, compared to saline group): did not affect body weight, blood glucose, plasma insulin, pancreas insulin, or pancreas weight | all parameters measured, scrambled peptide versus normal saline (normal C57BL/6J mice [10]; 25 mg/kg, 10 days): no difference
